According to ChEMBL document CHEMBL5329169, “Recent developments in membrane targeting antifungal agents to mitigate antifungal resistance” (2023):
Values after ≈ are worked out from the molar mass of the structure shown. Each block holds one compound with its values, some of them ahead of it.

Legend:
Assay type in all cases: functional
[1] = tested on: Candida albicans; assay: Antifungal activity against Candida albicans ATCC 10231 assessed as fungal growth inhibition measured after 24 hrs by two fold serial dilution technique
[2] = tested on: Candida albicans; assay: Antifungal activity against Candida albicans SC5314 assessed as fungal growth inhibition measured after 20 hrs by microplate assay
[3] = tested on: Cryptococcus neoformans; assay: Antifungal activity against Cryptococcus neoformans H99 assessed as fungal growth inhibition measured after 20 hrs by microplate assay
[4] = tested on: Candida albicans; assay: Antifungal activity against Candida albicans assessed as fungal growth inhibition measured after 48 hrs by broth microdilution assay
[5] = tested on: Candida albicans; assay: Antifungal activity against Candida albicans SC5314 assessed as log reduction in fungal growth at 2x MIC measured after 6 hrs

MIC80 [1]: 0.5 µg/mL
Compound: CC[n+]1ccn(CCC[C@@H](C)[C@H]2CC[C@H]3[C@@H]4CC[C@@H]5C[C@H](O)CC[C@]5(C)[C@H]4CC[C@]23C)c1.[I-]

MIC80 [2]: 12.5 µg/mL (≈ 29.4 µM) | MIC80 [3]: 3.1 µg/mL (≈ 7.28 µM)
Compound: CCCCCCCCCCN(Cc1cccc2ccccc12)C(=O)C(N)CCCCN (stereo unspecified)

MIC80 [1]: 0.25 µg/mL
Compound: C[C@H](CCCn1cc[n+](C)c1)[C@H]1CC[C@H]2[C@@H]3CC[C@@H]4C[C@H](O)CC[C@]4(C)[C@H]3CC[C@]12C.[I-]

Compound: C[C@H](CCC(=O)O)[C@H]1CC[C@H]2[C@@H]3CC[C@@H]4C[C@H](O)CC[C@]4(C)[C@H]3CC[C@]12C [LITHOCHOLIC ACID]
MIC80 [4]: 3.12 µg/mL (≈ 8.29 µM)

Compound: H-GIWKKWIKKWLKKLKNLF-NH2
Activity [5]: 5.55 log reduction
